In one assay the test system is PfTrxR. The conditions noted are these: read-out: Pf TrxR IC50; cited from earlier work.
Another assay deals with Human erythrocytes. Put plainly: ROS assay in DCFDA loaded erythrocytes. Format: cell-based.
Assay [1] deals with P. falciparum chloroquine sensitive (D6, Sierra Leone) strain. Put plainly: In vitro antimalarial assay (SYBR green), D6 strain. The class given is cell-based, Plasmodium falciparum.
A further assay concerns 3T3 cells. In words: Cytotoxicity assay (AlamarBlue). The class given is cell-based. On the technique in general: Resazurin is reduced to fluorescent resorufin, in cell work by metabolically active cells.
Assay [2] deals with P. falciparum CQ-sensitive (D6) and CQ-resistant (W2) strains. Put plainly: In vitro antimalarial assay, statements covering both strains. Format: cell-based, Plasmodium falciparum. Particulars: for IC50: Plasmodium falciparum, strain not given, read-out: antimalarial activity IC50 (abstract).
The subject of the next assay is hTrxR. The conditions noted are these: read-out: Exptl. IC50, hTrxR; cited from earlier work.
Assay [3] relates to P. falciparum chloroquine resistant (W2, IndoChina) strain. In words: In vitro antimalarial assay (SYBR green), W2 strain. The class given is cell-based, Plasmodium falciparum.
Where [4] appears, read: test compounds 50 μM, DCFDA fluorescence monitored for 120 min.
Setting [5] is: Plasmodium falciparum, D6 clone, mean ± S.D. of triplicate observations, read-out: Pf (D6) CQ sensitive IC50.
Setting [6] is: Mus musculus, NIH3T3, 3T3 cells, AlamarBlue, NC: no cytotoxicity up to concentration much higher than the antiplasmodial concentration, read-out: 3T3 IC50.
Setting [7] is: against the two strains of P. falciparum.
[8] abbreviates: Plasmodium falciparum, W2, W2 clone, mean ± S.D. of triplicate observations, read-out: Pf (W2) CQ resistance IC50.
Setting [9] is: Plasmodium falciparum, D6, read-out: Pf (D6) CQ sensitive IC50.
The mark [10] stands for this setting: Plasmodium falciparum, W2, read-out: Pf (W2) CQ resistance IC50.

Read-outs that look alike come from different tables or passages of the source.

On to 4-nitrobenzothiadiazole [4-NBT], for which the IC50 (usually the concentration that inhibits the measured activity by half) was 2 µM with PfTrxR, 8.3 ± 2.1 µM in assay [1] (read-out: Pf (D6) CQ sensitive IC50), 80 ± 1.15 µM with 3T3 cells (read-out: 3T3 IC50) and 50 µM with hTrxR. Further, the “intraerythrocytic formation of ROS (oxidative stress)” value (shortened to “intraerythrocytic formation of ROS”) with Human erythrocytes is listed as “significant increase”. The “antimalarial activity in words” value in assay [2] was “most active”.
`O=C1C=CC(=O)c2ccccc21` [1,4-NQ, 1,4-napthoquinone]: the IC50 is 0.75 µM in the assay with PfTrxR; 8.9 ± 2.3 µM in assay [1] (setting [5]); 38.5 ± 0.76 µM with 3T3 cells (setting [6]); less than 20 µM in assay [2]; less than 20 µM in assay [3] (setting [8]); 16.7 ± 3.7 µM in assay [3] (W2 clone, mean ± S.D. of triplicate observations, read-out: Pf (W2) CQ resistance IC50). Moreover, in the assay with Human erythrocytes (setting [4]), the “intraerythrocytic formation of ROS” value is given as “significant increase”. Besides, in assay [2] (setting [7]), the “antimalarial activity in words” value is listed as “most active”.
As for `CN(C)CCC(=O)c1ccccc1` [3-DAP, 3-dimethylaminopropiophenone], the IC50 in the assay with PfTrxR is 15.4 µM; in assay [1] (setting [9]) it was greater than 100 µM; with 3T3 cells (Mus musculus, NIH3T3, read-out: 3T3 IC50), greater than 100 µM; in assay [3] (setting [10]), greater than 100 µM. Besides, the “intraerythrocytic formation of ROS” value in the assay with Human erythrocytes is “did not cause the production of ROS”. Also, the “antimalarial activity in words” value in assay [2] (setting [7]) was “inactive”.
Turning to `CCN(CC)CCCC(C)Nc1ccnc2cc(Cl)ccc12` (centres unmarked) [CQ, chloroquine], the results for the 50% inhibitory concentration (IC50) in assay [1] (setting [9]) and in assay [3] (setting [10]) were 0.055 ± 0.006 µM and 0.44 ± 0.045 µM, respectively.
As to `CC1=CC(=O)c2ccccc2C1=O` [MD, menadione], the IC50 with PfTrxR was 1.6 µM; in assay [1] (setting [5]), 18.5 ± 1.9 µM; in the assay with 3T3 cells (setting [6]), 70.5 ± 3.69 µM; in assay [2], less than 20 µM; in assay [3] (setting [8]), 28.3 ± 5.6 µM. Further, in the assay with Human erythrocytes (setting [4]), the “intraerythrocytic formation of ROS” value is reported as “significant increase”. Moreover, in assay [2] (setting [7]), the “antimalarial activity in words” value is recorded as “moderately active”.

(Values after PMC3828397, “Characterization of PfTrxR inhibitors using antimalarial assays and in silico techniques” (Chemistry Central Journal, 2013).)
